Target: S1P1 (Homo sapiens (Human), UniProt P21453)
Assay: S1P1 GTPγS binding assay
Type: biochemical
Details: [35S]-GTPγS, membranes with high-expressed S1P1 (CHO-S1P1)
Experimental: 1. S1P1GTPγS Binding Assay
2) T-75 cell culture plate; 150 mm cell culture dish
3) DMEM cell culture fluid; 10% (v/v) fetal bovine serum; 100 U/ml penicillin-100 μg/ml streptomycin; 2 mM […], 1 mg/ml G-418
4) Cell Lysis Buffer: HEPES 20 mM (pH 7.4), EDTA 10 mM
5) Stock solution: HEPES 20 mM, EDTA 0.1 mM
6) Binding Buffer; HEPES 20 mM (pH 7.4), NaCl 100 mM, MgCl2 5 mM, GDP 1 μM, BSA 0.1% (w/v), DMSO 2.5% (v/v),
7) Washing solution: NaH2PO4 10 mM (pH 7.4)
The test compounds were dissolved in DMSO and prepared as a concentration of 20 mM.
The concentrations of the compounds were detected ranging from 0.3 nM to 20 μM.
Control group: […] SIP and SEW2871 were used as positive control and were purchased from Tocris company, and the binding buffet was as negative control.
Test method: wetting membranes by saponin solution, and preparing [^35S]-GTPγS in binding solution (4×). The test compound was prepared as 4× of the final concentration which was then performed serial 3× dilution in 100% DMSO. Membranes with high-expressed S1P1 were collected in 5 ml binding buffer, and 50 μL was added to 96-well (containing 5 μg membrane protein with high-expressed S1P1). 25 μL, test compound was added in each well. The compound was incubated with the membranes for 30 min at room temperature, then 25 μL [^35S]-GTPγS was added, and the experiment was initiated. The 96-well detection plate was incubated for 1 hour at room temperature, filtered by filtermat B, and washed with washing solution for three times. After the plate was dried for 1 h at 50° C., 8 ml scintillator solution was added and counted using scintillation counter.
Result Analysis and Determination of 50% Inhibitory Concentration (IC50):
The IC50 value was calculated by using (Prism 4) software, and 50% inhibitory concentrations were obtained.

Sequence of S1P1 (P21453 whole entry): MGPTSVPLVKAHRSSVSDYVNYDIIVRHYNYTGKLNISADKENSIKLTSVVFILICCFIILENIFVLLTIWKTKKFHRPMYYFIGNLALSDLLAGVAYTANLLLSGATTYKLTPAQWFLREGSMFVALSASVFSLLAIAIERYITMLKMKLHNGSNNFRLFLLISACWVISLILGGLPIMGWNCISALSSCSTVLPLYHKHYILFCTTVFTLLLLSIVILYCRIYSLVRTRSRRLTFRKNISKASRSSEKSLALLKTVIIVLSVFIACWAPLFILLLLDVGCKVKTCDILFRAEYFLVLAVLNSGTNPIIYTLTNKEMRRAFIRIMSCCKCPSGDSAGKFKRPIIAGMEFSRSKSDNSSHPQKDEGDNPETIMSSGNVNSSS

SMILES	IC50 [µM]
CC(C)Oc1ccc(-c2nnc(-c3ccc4c(c3)CC(N)(CO)CC4)o2)cc1 (centres unmarked) [Example 16, 7-[5-(4-isopropoxyphenyl)-2-1,3,4-oxdiazolyl]-2-amino-1,2,3,4-tetrahydro-naphthalen-2-yl-methanol]	0.046
COCCOc1ccc(-c2nnc(-c3ccc4c(c3)CC(N)(CO)CC4)o2)cc1C(F)(F)F (centres unmarked) [Example 17, 7-{5-[4-(2-methoxyethoxy)-3-trifluoromethylphenyl]-2-1,3,4-oxdiazolyl}-2-amino-1,2,3,4-tetrahydro-naphthalen-2-yl-methanol]	0.0102
COCCOc1ccc(-c2nnc(-c3ccc4c(c3)CC(N)(CO)CC4)o2)cc1C (centres unmarked) [Example 18, 7-{5-[4-(2-methoxyethoxy)-3-methylphenyl]-2-1,3,4-oxdiazolyl}-2-amino-1,2,3,4-tetrahydro-naphthalen-2-yl-methanol]	0.0411
CC(C)Oc1ccc(-c2nnc(-c3ccc4c(c3)CC(N)(CO)CC4)o2)cn1 (centres unmarked) [Example 19, 7-[5-(6-isopropoxy-3-pyridyl)-2-[1,3,4]-oxdiazolyl]-2-amino-1,2,3,4-tetrahydronaphthalen-2-yl-methanol]	0.0612
CCNC1(CO)CCc2ccc(-c3nnc(-c4ccc(OC(C)C)c(C)c4)o3)cc2C1 (centres unmarked) [Example 23, 7-[5-(3-methyl-4-isopropoxyphenyl)-2-1,3,4-oxdiazolyl]-2-ethylamino-1,2,3,4-tetrahydro-naphthalen-2-yl-methanol]	0.0376
CC(=O)NC1(CO)CCc2ccc(-c3nnc(-c4ccc(OC(C)C)c(C)c4)o3)cc2C1 (centres unmarked) [Example 25, N-{2-hydroxymethyl-7-[5-(3-methyl-4-isopropoxyphenyl)-2-1,3,4-oxdiazolyl]-1,2,3,4-tetrahydro-naphthalen-2-yl}acetamide]	0.0455
Cc1cc(-c2nnc(-c3ccc4c(c3)CC(CO)(NS(C)(=O)=O)CC4)o2)ccc1OC(C)C (centres unmarked) [Example 26, N-{2-hydroxymethyl-7-[5-(3-methyl-4-isopropoxyphenyl)-2-1,3,4-oxdiazolyl]-1,2,3,4-tetrahydro-naphthalen-2-yl}methanesulfonamide]	0.086

Second part, the molecule after the results:

IC50 [µM]	SMILES
0.179	CCOc1ccc(-c2nnc(-c3ccc4c(c3)CC(N)(CO)CC4)o2)cc1OCC (centres unmarked) [Example 20, 7-[5-(3,4-diethoxyphenyl)-2-[1,3,4]-oxdiazolyl]-2-amino-1,2,3,4-tetrahydro-naphthalen-2-yl-methanol]
0.473	Cc1cc(-c2noc(-c3ccc4c(c3)CCC(N)(CO)C4)n2)ccc1OC(C)C (centres unmarked) [Example 28, 6-[3-(3-methyl-4-isopropoxyphenyl)-5-1,2,4-oxdiazolyl]-2-amino-1,2,3,4-tetrahydro-naphthalen-2-yl-methanol]
0.749	Cc1cc(-c2nc(-c3ccc4c(c3)CCC(N)(CO)C4)no2)ccc1OC(C)C (centres unmarked) [Example 30, 6-[5-(3-methyl-4-isopropoxyphenyl)-3-1,2,4-oxdiazolyl]-2-amino-1,2,3,4-tetrahydro-naphthalen-2-yl-methanol]
0.125	Cc1cc(-c2cn(-c3ccc4c(c3)CCC(N)(CO)C4)nn2)ccc1OC(C)C (centres unmarked) [Example 32, 6-[4-(3-methyl-4-isopropoxyphenyl)-1-1,2,3-triazolyl]-2-amino-1,2,3,4-tetrahydro-naphthalen-2-yl-methanol]
